Test results taken from US4835185A, “Immunomodulator for improving commercial performance of domestic animals” (Iowa State University Research Foundation, Inc., priority 1987, dated 1989).

Experiments:
[1] = tested on: T lymphocytes; test: Lamb Trial 2: lymphocyte blastogenesis (3H-thymidine, phytohemaglutinin); format: cell-based, lambs (sheep); conditions: 1% KIC, * p<.05
From the text: The lambs used in Trial 1 consisted of medium-frame crossbred wethers and ewes weighing 26 to 31 kg. The lambs used in Trial 2 consisted of medium-framced crossbred rams weighing 18 to 25 kg. Each animal was raised as a single. The lambs were housed in a temperature controlled room in individual pens with nipple waterers. When received, the lamps were vaccinated for enterotoxemia. They were allowed to adjust to the pens and the environment for 10 days. One day before the trial began, the lambs were sheared and placed on their respective dietary treatments. The lamps were allotted blocking by weight and sex into two dietary treatment groups. Growth and feed consumption were measured bi-weekly. All lamb weights were taken after a 12 to 16 hour fast. The animals were slaughtered at 50 kg in the Iowa State University Meat laboratory facilities at Ames, Iowa. At slaughter, the lamb's internal organs and wool were weighed and sampled, loin eye area and back fat measured, and carcasses separated into fat, lean, and bone.
^(9) Lymphocyte blastogenesis measured by amount of ^3
H--thymidine incorporated per 2 hrs. of incubation in the presence of
phytohemaglutinin (a mitogen that stimulates Tlymphocyte division).

[2] = tested on: white blood cells; test: White blood cell number and differential, sheep (experiments 1 and 2); format: in vivo, lambs (sheep)
Method: A study was conducted to determine if KIC administration can alter white blood cell function, specifically T lymphocyte function, in growing sheep and cattle. Eighteen medium-framed crossbred male lambs were used in experiment 1. Lambs were randomly assigned to either a control diet (n=10) or a diet supplemented with 1% KIC (n=8). Animals were fed ad libitum in individual cages. At 100 and 108 days of treatment, 50-ml blood samples were collected for lymphocyte and neutrophil function tests.
In experiment 2, 19 intact crossbred male lambs were randomly assigned to either a saline treatment group (n=9) or a KIC treatment group (n=10). Control lambs were injected with 50 ml of a saline solution, and KIC treated lambs were injected with 50 ml of a 5% solution of KIC (sodium salt) daily (~2.5 g KIC/day). All injections were made intraperitoneally in the right posterior abdominal region after disinfection of the area. At day 60 and day 66 of treatment, blood was collected for lymphocyte and neutrophil function tests.
Sheep in experiments 1 and 2 were fed diets based on a mixture of 48% corn, 5% molasses, 20% alfalfa meal, 0.8% limestone, 0.6% salt-mineral-vitamin mix and ~25% of a protein supplement (either soybean meal, corn gluten meal, or corn gluten feed). The diets were isonitrogenous and analyzed to be ~20% crude protein and 89% dry matter. The KIC diet consisted of the basal diet to which was added 1% calcium-KIC, whereas the control diet was the basal diet plus 0.25% calcium carbonate.
Blood was collected by jugular venapuncture into acid-citrate-dextrose anticoagulant. Lymphocytes and neutrophils were isolated, and lymphocyte blastogenesis and neutrophil function evaluated. KIC was obtained from SOBAC, Paris, France. Zein was purchased from Freeman Industries, Tuckahoe, NY. Each experiment was statistically analyzed by analysis of variance. In sheep experiments, individual animals were the experimental units, whereas pen means were analyzed in the cattle experiment.
^2 Total white blood cell number (WBC) is the cells per mm^3.

[3] = tested on: neutrophils; test: Neutrophil function (experiments 1 to 3); format: cell-based, sheep and cattle; conditions: any experiment
Method: A study was conducted to determine if KIC administration can alter white blood cell function, specifically T lymphocyte function, in growing sheep and cattle. Eighteen medium-framed crossbred male lambs were used in experiment 1. Lambs were randomly assigned to either a control diet (n=10) or a diet supplemented with 1% KIC (n=8). Animals were fed ad libitum in individual cages. At 100 and 108 days of treatment, 50-ml blood samples were collected for lymphocyte and neutrophil function tests. In experiment 2, 19 intact crossbred male lambs were randomly assigned to either a saline treatment group (n=9) or a KIC treatment group (n=10). Control lambs were injected with 50 ml of a saline solution, and KIC treated lambs were injected with 50 ml of a 5% solution of KIC (sodium salt) daily (~2.5 g KIC/day). All injections were made intraperitoneally in the right posterior abdominal region after disinfection of the area. […] At the end of the 6-233k periods, 100-ml blood samples were collected from each animal, and lymphocyte and neutrophil function were evaluated. […] Lymphocytes and neutrophils were isolated, and lymphocyte blastogenesis and neutrophil function evaluated. […] Each experiment was statistically analyzed by analysis of variance. In sheep experiments, individual animals were the experimental units, whereas pen means were analyzed in the cattle experiment.

[4] = parameters: species or system pigs; conditions: pig, in vivo
From the text: In experiment 1, sixteen female pigs weighing 20-30 kg were used. Seven days before study, catheters were surgically placed in the right atria for blood sampling. Animals were housed in individual cages during the recovery period and had free access to water. Preceding the experiment, animals were fed twice daily a basal diet (2% of body weight per feeding). The basal diet consisted of a corn-soybean mix, adequate in all minerals and vitamins and containing approximately 14% crude protein. Test meals were formulated by additions to a basal diet. Five animals received the basal diet (control); five animals received the leucine meal, which had 2% leucine added to the basal diet; and six animals received the KIC diet, which had 2% KIC (sodium salt equivalent to 1.7% free acid) added to the basel diet. Studies were begun between 0800 and 0900 h after a 24-hr fast. Basal blood samples were taken at -20, -10 and -5 min. Animals were then offered 100 g of their respective test meal (time 0). Pigs were included in the study only if they consumed the entire meal in the first 20 min. Blood was sampled every 30 min from 120 to 240 min. Plasma was separated, Trasylol (FBA Pharmaceuticals, New York, NY) added (50 ul/ml), and plasma stored at -70 C. until analyzed.
Cortisol was measured by coated tube kits (Gammacoat, Travenol-Genetech Diagnostics, Cambridge, MA). Leucine and KIC were measured by high pressure liquid chromatography. Crystalline leucine was obtained from Sigma Chemical (St. Louis, MO) and KIC-sodium was obtained from SOBAC (Paris, France). Statistical analysis of the individual pig responses was conducted on mean plasma concentrations before the meal (-20 to 0 min) and after the meal (120 to 240 min). When the overall treatment F-value was significant, differences between individual treatments were determined using the pooled SEM and a T-test.

**Q.** With CC(C)CC(=O)C(=O)O [KIC, alpha-ketoisocaproate] as the compound, how does the “LYMPHOCYTE BLASTOGENESIS: amount of 3H-thymidine incorporated per 2 hrs. of incubation” value ([1]; Trial 2, CGM diet, phytohemaglutinin (0%: 6134)) read?
**A.** Its value is 18102.

**Q.** What about the “LYMPHOCYTE BLASTOGENESIS: amount of 3H-thymidine incorporated per 2 hrs. of incubation” value ([1]; Trial 2, SBM diet, phytohemaglutinin (0%: 5993)) of the same compound?
**A.** The value was 14625.

**Q.** What about the “% SEG” value ([2]; Exp. 1, oral uncoated KIC 1% (control 38), p<.89) of the same compound?
**A.** The value was 39% of Total WBC.

**Q.** And the “% LYM” value ([2]; Exp. 1, oral uncoated KIC 1% (control 61), p<.34)?
**A.** Its value is 59% of Total WBC.

**Q.** What about the “% EOS” value ([2]; Exp. 1, oral uncoated KIC 1% (control .7), p<.12) of the same compound?
**A.** Its value is 1.7% of Total WBC.

**Q.** What about the “% EOS” value ([2]; Exp. 2, IP injected KIC (saline 3.4), p<.01) of the same compound?
**A.** Its value is 1.7% of Total WBC.

**Q.** What about the “% SEG” value ([2]; Exp. 2, IP injected KIC (saline 41), p<.13) of the same compound?
**A.** Its value is 34% of Total WBC.

**Q.** What about the “% LYM” value ([2]; Exp. 2, IP injected KIC (saline 48), p<.04) of the same compound?
**A.** Its value is 61% of Total WBC.

**Q.** And the antibody-dependent cell-mediated cytotoxicity [3]?
**A.** The antibody-dependent cell-mediated cytotoxicity was “did not alter”.

**Q.** And the “Plasma KIC, Change” value [4]?
**A.** Its value is 56 µM.

**Q.** What about the “Plasma leucine, Change” value [4] of the same compound?
**A.** The value was 182 µM.

**Q.** What about the plasma leucine concentration [4] of the same compound?
**A.** Its plasma leucine concentration is “doubling”.

**Q.** And the “Plasma KIC, Post” value ([4]; 240 min)?
**A.** The value was 102 µM.

**Q.** What about the “Plasma leucine, Post” value ([4]; 240 min) of the same compound?
**A.** The value was 312 µM.
